Laboratory results reported in US20230149452A1, “STRUCTURALLY DEFINED, BETTER TOLERATED, ORALLY ADMINSTERED, PROCESSED ARSENOLITE, A PROCESS FOR ITS PREPARATION, A PHARMACEUTICAL COMPOSITION AND USES THEREOF” (priority 2020, published 2023).

How the values were obtained:
[1] = Bulk density, ASTM D6683-19; type: physicochemical
[2] = patients; cited from earlier work
[3] = system: chick embryo yolk sac membrane (YSM) blood vessels; test: In ovo chick embryo yolk sac membrane (YSM) angiogenesis model; type: in vivo, white Leghorn breed of fowls; conditions: all tested concentrations, 24 hr after treatment, in comparison with control

Substance	bulk density [1] [g/mL]	dyspepsia [2] [%]	elevation in liver enzymes [2] [%]	headache [2] [%]	herpes zoster reactivation [2] [%]	menorrhagia [2] [%]	rash [2] [%]	number of quaternary blood vessels [3]
Arsenic tri oxide [ATO]	1.3336	24	42	29	13	4	11	
Avastin: monoclonal antibody targeted against VEGF, approved by FDA for therapeutic intervention in cancer								significant decrease
